Results from the NIST ThermoML archive (doi:10.1016/j.jct.2016.05.011).
Numbers after ± are expanded uncertainties.

Assays:
[1] = refractive index (Na D-line) (dimensionless); conditions: 293.15 K; 101.33 kPa; Liquid; Standard Abbe refractometry
[2] = Liquid; for mass density: 293.15 K, 101.33 kPa, Vibrating tube method; for Normal boiling temperature: Ebulliometric method (Recirculating still)

refractive index [1]	mass density [2]	Normal boiling temperature [2]	Compound
1.3439 ± 0.0004	782.1 ± 1 kg/m3	81.44 ± 0.3 °C	CC#N [acetonitrile]
1.3283 ± 0.0004	791.1 ± 1 kg/m3	64.41 ± 0.3 °C	CO [methanol]
